Data: patent US7723068B2, “Gene cluster involved in safracin biosynthesis and its uses for genetic engineering” (PharmaMar, S.A., priority 2002, dated 2010)

Key:
HT29 [1] = settings: Colon
SK-BR3 [2] = settings: Breast
SK-BR3 [3] = assay: cells; settings: Homo sapiens; for GI50: SK-BR-3, read-out: GI50 SK-BR3; for CC50: SK-BR-3, read-out: LC50 SK-BR3
IGROV-ET [4] = settings: Ovary
K-562 [5] = settings: Leukemia
HELA [6] = assay: cells; settings: Homo sapiens; for GI50: read-out: GI50 HELA; for CC50: read-out: LC50 HELA
HELA-APL [7] = assay: cells; settings: for GI50: read-out: GI50 HELA-APL; for CC50: read-out: LC50 HELA-APL
SK-MEL-28 [8] = assay: cells; settings: Homo sapiens; for GI50: SK-MEL-28, read-out: GI50 SK-MEL-28; for CC50: SK-MEL-28, read-out: LC50 SK-MEL-28
LOVO-DOX [9] = assay: cells; settings: for GI50: read-out: GI50 LOVO-DOX; for CC50: read-out: LC50 LOVO-DOX
DNA synthesis = assay: Secondary Screening, Macromolecules Synthesis DNA; assay type: cell-based; settings: Secondary Evaluation
HT29 [10] = assay: cells; settings: Homo sapiens; for GI50: HT-29, read-out: GI50 HT29; for CC50: HT-29, read-out: LC50 HT29
[11] = Antibacterial and antitumoral activities, general statements; settings: compared with safracin A / safracin B
K-562 [12] = assay: cells; settings: Homo sapiens; for GI50: K562, read-out: GI50 K-562; for CC50: K562, read-out: LC50 K-562
PANC1 [13] = settings: Pancreas
LOVO [14] = assay: cells; settings: Homo sapiens; for GI50: read-out: GI50 LOVO; for CC50: read-out: LC50 LOVO
HELA-APL [15] = settings: Cervix
DU-145 [16] = assay: cells; settings: Homo sapiens; for GI50: DU-145, read-out: GI50 DU-145; for CC50: DU-145, read-out: LC50 DU-145
LN-caP [17] = settings: Prostate
LOVO-DOX [18] = settings: Colon
DU-145 [19] = settings: Prostate
PANC1 [20] = assay: cells; settings: Homo sapiens; for GI50: PANC-1, read-out: GI50 PANC1; for CC50: PANC-1, read-out: LC50 PANC1
HELA [21] = settings: Cervix
Bacillus subtilis = assay: Antimicrobial activity on solid medium, disk; assay type: cell-based; settings: 10 μg/disk (6 mm diameter)
Procedure: Antimicrobial activity: On solid medium Bacillus subtilis. 10 μg/disk (6 mm diameter): 10 mm inhibition zone Spectroscopic Data: […]

A549 [22] = settings: NSCL
IGROV-ET [23] = assay: cells; settings: for GI50: read-out: GI50 IGROV-ET; for CC50: read-out: LC50 IGROV-ET
PROTEIN synthesis = assay: Secondary Screening, Macromolecules Synthesis PROTEIN; assay type: cell-based; settings: Secondary Evaluation
IGROV [24] = settings: Ovary
IGROV [25] = assay: cells; settings: for GI50: read-out: GI50 IGROV; for CC50: read-out: LC50 IGROV
SK-MEL-28 [26] = settings: Melanoma
LN-caP [27] = assay: cells; settings: Homo sapiens, LNCaP; for GI50: read-out: GI50 LN-caP; for CC50: read-out: LC50 LN-caP
A549 [28] = assay: cells; settings: Homo sapiens; for GI50: A549, read-out: GI50 A549; for CC50: A549, read-out: LC50 A549
LOVO [29] = settings: Colon

With `CCOC1=C(C)C(=O)C2=C(C1=O)C(CNC(=O)C(C)N)N1CC3Cc4cc(C)c(OCC)c(O)c4C(C1C2)N3C` (stereo not drawn) [Safracin A (OEt)] the “TGI HT29” value (HT29 [1]) was 4.41 µM, the “TGI SK-BR3” value (SK-BR3 [2]) was 1.16 µM and the GI50 (SK-BR3 [3]) was 0.555 µM. The CC50 (SK-BR3 [3]) was 5.57 µM, the “TGI IGROV-ET” value (IGROV-ET [4]) was 5.1 µM and the “TGI K-562” value (K-562 [5]) was 0.686 µM. It also gave a GI50 (HELA [6]) of 1.02 µM, a CC50 (HELA [6]) of 7.85 µM and a GI50 (HELA-APL [7]) of 0.764 µM. It also gave a CC50 (HELA-APL [7]) of 6.69 µM, a GI50 (SK-MEL-28 [8]) of 0.796 µM and a CC50 (SK-MEL-28 [8]) of 5.77 µM. The GI50 (LOVO-DOX [9]) was 5.72 µM, the CC50 (LOVO-DOX [9]) was 16.9 µM and the IC50 (DNA synthesis) was 1.81 µM. For the same compound, the GI50 (HT29 [10]) was 1.97 µM, the CC50 (HT29 [10]) was 9.88 µM and the “antibacterial and antitumoral activities (in words)” value [11] was “as potent as the activities of safracin A and safracin B, respectively”. For the same compound, the GI50 (K-562 [12]) was 0.311 µM, the CC50 (K-562 [12]) was 1.51 µM and the “TGI PANC1” value (PANC1 [13]) was 5.83 µM. For the same compound, the GI50 (LOVO [14]) was 2.03 µM, the CC50 (LOVO [14]) was 9.61 µM and the “TGI HELA-APL” value (HELA-APL [15]) was 2.32 µM. For the same compound, the GI50 (DU-145 [16]) was 2.64 µM, the CC50 (DU-145 [16]) was 11 µM and the “TGI LN-caP” value (LN-caP [17]) was 0.742 µM. For the same compound, the “TGI LOVO-DOX” value (LOVO-DOX [18]) was 9.84 µM, the “TGI DU-145” value (DU-145 [19]) was 5.39 µM and the GI50 (PANC1 [20]) was 3.06 µM. For the same compound, the CC50 (PANC1 [20]) was 11.1 µM, the “TGI HELA” value (HELA [21]) was 2.91 µM and the zone of inhibition at 10 µg/disc (Bacillus subtilis; Bacillus subtilis) was 10 mm. The “TGI A549” value (A549 [22]) was 7.17 µM, the GI50 (IGROV-ET [23]) was 2.01 µM and the CC50 (IGROV-ET [23]) was 13 µM. The IC50 (PROTEIN synthesis) was 6.33 µM, the “TGI IGROV” value (IGROV [24]) was 0.928 µM and the GI50 (IGROV [25]) was 0.492 µM. The CC50 (IGROV [25]) was 1.76 µM, the “TGI SK-MEL-28” value (SK-MEL-28 [26]) was 1.9 µM and the GI50 (LN-caP [27]) was 0.378 µM. The CC50 (LN-caP [27]) was 1.45 µM, the GI50 (A549 [28]) was 4 µM and the CC50 (A549 [28]) was 12.8 µM. For the same compound, the “TGI LOVO” value (LOVO [29]) was 4.41 µM.
For `COc1c(C)cc2c(c1O)C1NC(C2)C(O)N2C(CNC(=O)C(C)N)c3c(cc(C)c(OC)c3O)CC12` (stereo not drawn) [Safracin P-19B], the “TGI HT29” value (HT29 [1]) was greater than 19.5 µM, the “TGI SK-BR3” value (SK-BR3 [2]) was 19.2 µM and the GI50 (SK-BR3 [3]) was 7.08 µM. For the same compound, the CC50 (SK-BR3 [3]) was greater than 19.5 µM, the “TGI IGROV-ET” value (IGROV-ET [4]) was greater than 19.5 µM and the “TGI K-562” value (K-562 [5]) was 5.77 µM. The GI50 (HELA [6]) was 6.73 µM, the CC50 (HELA [6]) was greater than 19.5 µM and the GI50 (HELA-APL [7]) was 4.8 µM. For the same compound, the CC50 (HELA-APL [7]) was 19.5 µM, the GI50 (SK-MEL-28 [8]) was 7.9 µM and the CC50 (SK-MEL-28 [8]) was greater than 19.5 µM. The GI50 (LOVO-DOX [9]) was 14.4 µM, the CC50 (LOVO-DOX [9]) was greater than 19.5 µM and the GI50 (HT29 [10]) was 15.5 µM. The CC50 (HT29 [10]) was greater than 19.5 µM, the “antibacterial and antitumoral activities (in words)” value [11] was “appear to loose their activity” and the GI50 (K-562 [12]) was 2.38 µM. For the same compound, the CC50 (K-562 [12]) was 14 µM, the “TGI PANC1” value (PANC1 [13]) was greater than 19.5 µM and the GI50 (LOVO [14]) was greater than 19.5 µM. The CC50 (LOVO [14]) was greater than 19.5 µM, the “TGI HELA-APL” value (HELA-APL [15]) was 10 µM and the GI50 (DU-145 [16]) was 17 µM. For the same compound, the CC50 (DU-145 [16]) was greater than 19.5 µM, the “TGI LN-caP” value (LN-caP [17]) was 8.06 µM and the “TGI LOVO-DOX” value (LOVO-DOX [18]) was greater than 19.5 µM. The “TGI DU-145” value (DU-145 [19]) was greater than 19.5 µM, the GI50 (PANC1 [20]) was 18.1 µM and the CC50 (PANC1 [20]) was greater than 19.5 µM. The “TGI HELA” value (HELA [21]) was 16.1 µM, the “Antimicrobial activity: inhibition zone” value (Bacillus subtilis) was “NO ACTIVE” and the “TGI A549” value (A549 [22]) was greater than 19.5 µM. The GI50 (IGROV-ET [23]) was 8.74 µM, the CC50 (IGROV-ET [23]) was greater than 19.5 µM and the “TGI IGROV” value (IGROV [24]) was 14.8 µM. For the same compound, the GI50 (IGROV [25]) was 5.42 µM, the CC50 (IGROV [25]) was greater than 19.5 µM and the “TGI SK-MEL-28” value (SK-MEL-28 [26]) was greater than 19.5 µM. The GI50 (LN-caP [27]) was 3.9 µM, the CC50 (LN-caP [27]) was 16.7 µM and the GI50 (A549 [28]) was greater than 19.5 µM. For the same compound, the CC50 (A549 [28]) was greater than 19.5 µM and the “TGI LOVO” value (LOVO [29]) was greater than 19.5 µM.
